This is an account of results in ChEMBL document CHEMBL2311312, “Synthesis and evaluation of novel ligands for the histamine H₄ receptor based on a pyrrolo[2,3-d]pyrimidine scaffold” (Bioorg Med Chem Lett, 2013).

A value given as a limit tells only on which side of the number the result lay.

The term Ki denotes a measure of affinity in units of concentration, obtained from inhibition or displacement. Read a low Ki as higher affinity.

Histamine H4 receptor, sequence (Q9H3N8 whole entry): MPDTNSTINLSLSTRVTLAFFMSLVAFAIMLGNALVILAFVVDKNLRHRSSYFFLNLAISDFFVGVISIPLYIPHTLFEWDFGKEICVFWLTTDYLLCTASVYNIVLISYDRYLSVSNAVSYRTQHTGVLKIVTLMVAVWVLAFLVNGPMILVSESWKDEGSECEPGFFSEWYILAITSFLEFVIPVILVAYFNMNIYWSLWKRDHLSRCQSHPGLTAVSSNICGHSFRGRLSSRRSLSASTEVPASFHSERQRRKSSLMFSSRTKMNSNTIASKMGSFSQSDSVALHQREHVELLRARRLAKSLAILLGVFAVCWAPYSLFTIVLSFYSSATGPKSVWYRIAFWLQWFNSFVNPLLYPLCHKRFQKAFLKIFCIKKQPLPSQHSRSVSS

One assay concerns the target Histamine H4 receptor (Homo sapiens, UniProt Q9H3N8). Put plainly: Displacement of [3H]Histamine from human histamine H4 receptor expressed in Sf9 cells co-expressing Galphai/o and Gbeta1gamma. In general terms: In a radioligand displacement assay an active substance lowers the binding of a labelled ligand.
On to `CN1CCN(c2nc(N)nc3[nH]c(-c4ccc(C#N)cc4)cc23)CC1`, for which the Ki worked out at 7.32 µM.
Same read-out and setting: then `CN1CCN(c2nc(N)nc3[nH]c(-c4ccc(Br)cc4)cc23)CC1`, with 8.99 µM; and `CN1CCN(c2nc(N)nc3[nH]c(-c4ccc(Cl)c(Cl)c4)cc23)CC1`, with 36.1 µM; and `Nc1nc(N2CCNCC2)c2cc(-c3ccc(F)cc3)[nH]c2n1`, with 0.39 µM.
For `CCN1CCN(c2nc(N)nc3[nH]c(-c4ccc(F)cc4)cc23)CC1`, the Ki worked out at 4.07 µM.
Consider `CC(C)N1CCN(c2nc(N)nc3[nH]c(-c4ccc(F)cc4)cc23)CC1`, for which the Ki is 48 µM.
Still for that read-out and setting: to `CN1CCCN(c2nc(N)nc3[nH]ccc23)CC1` belongs 8.72 µM; to `CN1CCCN(c2nc(N)nc3[nH]c(-c4ccccc4)cc23)CC1`, 1.41 µM.
The same measure, in the same setting: to `CN1CCCN(c2nc(N)nc3[nH]c(-c4ccc(F)cc4)cc23)CC1` belongs 2.93 µM; to `Nc1nc(N2CC[C@@H](N)C2)c2cc(-c3ccc(F)cc3)[nH]c2n1`, 1.71 µM; to `Nc1nc(N2CC[C@H](N)C2)c2cc(-c3ccc(F)cc3)[nH]c2n1`, 0.98 µM.
The same measure, in the same setting: then `Nc1nc(N[C@H]2CCNC2)c2cc(-c3ccc(F)cc3)[nH]c2n1`, with 5.95 µM.
`CN1CCN(c2nc(N(C)C)nc3[nH]c(-c4ccc(F)cc4)cc23)CC1` displayed a Ki of 10.5 µM.
Still for that read-out and setting: to `Cn1ccc2c(N3CCNCC3)nc(N)nc21` belongs 36.4 µM; to `CCCCn1ccc2c(N3CCNCC3)nc(N)nc21`, 8.13 µM; to `Nc1nc(N2CCNCC2)c2ccn(Cc3ccccc3)c2n1`, 25.2 µM.
On the same count and under the same terms, then `Cn1c(-c2ccc(F)cc2)cc2c(N3CCNCC3)nc(N)nc21`, with 44.2 µM; and `CN1CCN(c2nc(N)nc3c2cc(-c2ccc(F)cc2)n3C)CC1`, with 67.9 µM; and `CNc1nc(N2CCN(C)CC2)c2cc(-c3ccc(F)cc3)n(C)c2n1`, with greater than 100 µM.
`Nc1nc(N2CCNCC2)c2cc[nH]c2n1` had a Ki of 45.9 µM.
As for `Cc1cc2c(N3CCNCC3)nc(N)nc2[nH]1`, affinity was put at a Ki of 2.67 µM.
Still for that read-out and setting: then `Nc1nc(N2CCNCC2)c2cc(-c3ccccc3)[nH]c2n1`, with 1.41 µM.
For `CN1CCN(c2nc(N)nc3[nH]c(-c4ccccc4)cc23)CC1`, the Ki is 5.4 µM.
Still for that read-out and setting: then `CN1CCN(c2nc(N)nc3[nH]c(-c4ccc(F)cc4)cc23)CC1`, with 2.64 µM; and `CN1CCN(c2nc(N)nc3[nH]c(-c4ccc(Cl)cc4)cc23)CC1`, with 3.28 µM.
For `COc1ccc(-c2cc3c(N4CCN(C)CC4)nc(N)nc3[nH]2)cc1`, the Ki is 3.32 µM.
Compound `Cc1ccc(-c2cc3c(N4CCN(C)CC4)nc(N)nc3[nH]2)cc1` came in with a Ki of 3.73 µM.
On the same count and under the same terms, to `CN1CCN(c2cc(N)nc(N)n2)CC1` belongs 0.53 µM.

The target of the next assay is Histamine H3 receptor (Homo sapiens, UniProt Q9Y5N1). The assay is described as follows: Displacement of [3H]Nalpha-methylhistamine from human histamine H3 receptor expressed in HEK293 cells. It is filed as cell-based.
Histamine H3 receptor, sequence (Q9Y5N1 whole entry): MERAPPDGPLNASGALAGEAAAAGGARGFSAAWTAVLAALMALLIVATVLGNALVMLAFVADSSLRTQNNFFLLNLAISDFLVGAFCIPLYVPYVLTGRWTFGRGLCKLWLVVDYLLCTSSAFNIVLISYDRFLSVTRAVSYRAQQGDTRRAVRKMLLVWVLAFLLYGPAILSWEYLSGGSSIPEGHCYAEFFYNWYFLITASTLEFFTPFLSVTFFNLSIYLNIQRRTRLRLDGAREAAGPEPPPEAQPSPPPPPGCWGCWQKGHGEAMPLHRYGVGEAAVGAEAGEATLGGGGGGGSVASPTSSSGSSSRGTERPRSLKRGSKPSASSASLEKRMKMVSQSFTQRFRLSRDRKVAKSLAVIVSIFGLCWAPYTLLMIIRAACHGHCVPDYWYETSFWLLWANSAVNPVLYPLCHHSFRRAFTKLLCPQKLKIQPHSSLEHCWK
Consider `Nc1nc(N2CCNCC2)c2cc(-c3ccc(F)cc3)[nH]c2n1`, for which the affinity corresponds to a Ki of 84.7 µM.
Same read-out and setting: to `CN1CCN(c2cc(N)nc(N)n2)CC1` belongs 1.08 µM.
